# How the values were obtained:
# [1] = tested on: Scopolamine-induced memory impairment in mice; assay: Scopolamine-induced memory impairment in mice, water maze test; type: in vivo, Kunming mice; details: for Improvement of scopolamine-induced memory impairment: water maze, **p<0.01 vs scopolamine model group, FIG. 10A, 10B
# Method: In this example, Kunming mice were selected and divided into normal control group (Ctrl), Scopolamine group (Sco), Donepezil treatment group (Sco+3 mg/kg donepezil), 1 and 10 mg T-006 treatment group (Sco+1 mg/kg T-006 and Sco+10 mg/kg T-006). Intragastric administration was performed for two weeks, and after the final administration water maze test was conducted for 4 days. Thirty minutes before the test, abdominal injection of scopolamine (1 mg/kg) and model were performed. On day 5, space search test was conducted, and data were expressed as Mean±SD (n=9 per group).
# [2] = tested on: PC12 cells; assay: Protective effect on t-BHP-induced PC12 cell injury (MTT); type: cell-based; details: FIG. 4
# Method: PC12 cells were seeded on a 96-well plate and inoculated in a 5% CO2 incubator at 37° C., for 24 hours. Then each compound (T-006, TMP, Edaravone) was added in different concentration gradients to pre-incubated for 2 hours. Two hours later, the medium was aspirated, and 100 μl t-BHP (100 μM) was added to each well except those of the control group, then the cells were cultured in an incubator for 24 hours. Four hours later, MTT was added into each of the wells, and the absorbance was measured at 570 nm using a microplate reader. […] Compared with t-BHP group, ****P<0.0001.
# [3] = tested on: Cortical neurons; assay: Protective effect on t-BHP-induced cortical neuronal injury (MTT); type: cell-based, SD fetal rat; details: FIG. 6
# Method: Cortical neurons of E16-18 days SD fetal rat were seeded on a 96-well plate and inoculated in a 5% CO2 incubator at 37° C. for 8 days. […] The neurons were set to incubator to cultivate for 24 hours, and then MTT was added to each well. Four hours later, the absorbance value was measured at 570 nm using a microplate reader. […] Compared with the t-BHP group, ****P<0.0001.
# [4] = tested on: PC12 cells; assay: t-BHP-induced ROS and RNS in PC12 cells (DCF-DA, HFP, DAF-FM, DHR123 probes); type: cell-based; details: pre-incubated 2 h, t-BHP 100 μM 6 h; total ROS, hydroxyl radicals, nitric oxide radicals, peroxynitrite; FIG. 14A-14D
# Method: PC12 cells were seeded on 6-well plate and inoculated in a 5% CO2 incubator at 37° C. for 24 hours, and then T-006 and TMP (100 M) in different concentration gradients were added to be pre-incubated for 2 hours. Then the medium was aspirated, and 100 μl t-BHP (100 μM) was added to each well except the wells of the control group, and the cells were cultured in an incubator for 6 hours. Consequently, DCF-DA probes, HFP probes, DAF-FM probes and DHR123 probes were added respectively to determine the total ROS, hydroxyl radicals, nitric oxide radicals and peroxynitrite. (A) DCF-DA probe for determining intracellular total ROS. (B) HFP probe for determining intracellular hydroxyl radicals. (C) DAF-FM probe for determining nitric oxide free radicals. (D) DHR123 probe for determining intracellular peroxynitrite. Compared with the control group, ### p<0.001; compared with t-BHP, *p<0.05, **p<0.01 and ***p<0.001.
# [5] = tested on: Cortical neurons; assay: Protective effect on IAA-induced cortical neuronal injury (MTT); type: cell-based, SD fetal rat; details: FIG. 5
# Method: Cortical neurons of E16-18 day SD fetal rat were seeded on a 96-well plate and inoculated in a 5% CO2 incubator at 37° C. for 8 days. On day 8, each of the compounds (T-006, TMP, Edaravone) was added with different concentration gradients, and 50 μl IAA (40 μM) was added to each well except those of the control group. Then the neurons were set to incubator to cultivate for 24 hours, and then MTT was added to each well. Four hours later, the absorbance was measured at 570 nm using a microplate reader. […] Compared with the IAA group, ****P<0.0001.
# [6] = tested on: MEF2 transcription activity in PC12 cells; assay: MEF2 luciferase reporter assay in stably transfected PC12 cells; type: cell-based; details: 24 h incubation, **P<0.01, FIG. 9
# Method: The PC12 was transfected by cloning the MEF2 reporter gene pGreenFire1TM-MEF2-EF1 lentivector. Stable transfected PC12 cells, as cultured in a conventional manner, were seeded on a 96-well plate with T-006 added in different concentrations, were incubated for 24 h. The activity was measured by the Luciferase reporter assay kit (Promega, USA). […] Compared with the IAA group, **P<0.01.
# [7] = tested on: PC12 cells; assay: t-BHP-induced mitochondrial membrane potential disorder in PC12 cells (JC-1, flow cytometry); type: cell-based; details: pre-incubated 2 h, t-BHP 100 μM, FIG. 13C
# Method: (§1) PC12 cells were seeded on a 96-well plate and inoculated in a 5% CO2 incubator at 37° C. for 24 hours, and then T-006 and TMP (100 M) in different concentration gradients were added to be pre-incubated for 2 hours. Then the medium was aspirated, and 100 μl t-BHP (100 μM) was added to each well except the wells of the control group, and the cells were cultured in an incubator for 24 hours. Hoechst working fluid was added and the number of PC12 cells was observed and counted under fluorescence microscope. […] (B) PC12 cell apoptosis statistics. […] PC12 cells were seeded on a 96-well plate and inoculated in a 5% CO2 incubator at 37° C. for 24 hours, and then T-006 and TMP (100 M) in different concentration gradients were added to be pre-incubated for 2 hours. 2 hours later, 100 μl t-BHP (100 μM) was added to each well except the control group for induction. After completion of the induction, JC-1 working solution was added to each well and mitochondrial membrane potential was monitored and analyzed using flow cytometry. Compared with the control group, ### p<0.001; compared with t-BHP, *p<0.05, **p<0.01 and ***p<0.001.
# [8] = tested on: PC12 cells; assay: Differentiation of PC12 cells into neurons with synapse growth; type: cell-based; details: 72 h, **P<0.01 vs control group, FIG. 11
# Method: PC12 cells were seeded on 6-well plate and inoculated in a 5% CO2 incubator at 37° C. for 24 hours. Control group was unchanged; NGF control group: serum-free F-12K+50 ng/mL NGF; drug treatment group: serum-free F-12K with different concentrations of T-006. After 72 hours of incubation, picture was taken under an inverted microscope with 5 shoots at random for each hole. If the cell synapse length is more than 2 times the cell, it can be regarded as cell differentiation and synapse formation. […] Compared with the control group, **P<0.01.
# [9] = tested on: Primary cerebellar granule cells; assay: Protective effect on glutamate-induced cerebellar granule injury (MTT); type: cell-based, SD fetal rat; details: pre-incubated 2 h, glutamate 75 μM 24 h, concentration-dependent, **P<0.01 vs glutamate group, FIG. 7
# Method: (§2) Primary cerebellar granule cells, extracted from 7-8 day, 15-20 g SD fetal rat, were seeded on a 96-well plate and inoculated in a 5% CO2 incubator at 37° C. for 8 days. On day 8, 90 μL of the compound (T-006) was added with different concentration gradients, then the cells were set to an incubator to cultivate for 2 hours. Then 10 μL of glutamate (final concentration of 75 μM) was added to each well except those of the control group. The cells were set to incubator to cultivate for 24 hours, and then MTT was added to each well. Four hours later, the absorbance value was measured at 570 nm using a microplate reader. […] Compared with the glutamate group, **P<0.01.
# [10] = tested on: PC12 cells; assay: Protective effect on IAA-induced PC12 cell injury (MTT); type: cell-based; details: FIG. 3
# Method: PC12 cells were seeded on a 96-well plate and inoculated in a 5% CO2 incubator at 37° C. for 24 hours. Then 100 μl of IAA (50 μM) was added for induction for 2 hours. Two hours later, the medium was aspirated, and each of the compounds (T-006, TMP, Edaravone) was added and the cells were cultured for 24 hours. After 24 hours of incubation, MTT was added to each well. Four hours later, the absorbance was measured at 570 nm using a microplate reader. […] Compared with the IAA group, ****P<0.0001.
# [11] = tested on: Primary cerebellar granule cells; assay: Protective effect on MPP+-induced cerebellar granule injury (MTT); type: cell-based, SD fetal rat; details: pre-incubated 2 h, MPP+ 35 μM 24 h, concentration-dependent, **P<0.01 vs MPP+ group, FIG. 8
# Method: as §2, with “days,” for “day,”, “MPP^+” for “glutamate”, “35” for “75”
# [12] = tested on: PC12 cells; assay: t-BHP-induced apoptosis in PC12 cells (Hoechst staining); type: cell-based; details: pre-incubated 2 h, t-BHP 100 μM 24 h, FIG. 13A, 13B
# Method: as §1
# [13] = comparison with TMP and Edaravone
compound,measurement,setting,value
Cc1ccc(N(/N=C/c2nc(C)c(C)nc2C)C(=O)C(F)(F)F)c(C)c1 [T-006],Improvement of scopolamine-induced memory impairment,[1]; 1 mg/kg intragastric for two weeks,significantly improved the memory impairment induced by scopolamine
same,Improvement of scopolamine-induced memory impairment compared with 3 mg/kg donepezil group,"[1]; 10 mg/kg T-006 vs 3 mg/kg donepezil, $p<0.05",significantly better than 3 mg/kg donepezil group
same,Improvement of scopolamine-induced memory impairment,[1]; 10 mg/kg intragastric for two weeks,significantly improved the memory impairment induced by scopolamine
same,Protective effect on t-BHP-induced PC12 cell injury compared with TMP or Edaravone,[2]; comparison with TMP or Edaravone,much stronger than that of the parent compound TMP or Edaravone
same,Protective effect on t-BHP-induced PC12 cell injury,"[2]; pre-incubated 2 h, t-BHP 100 μM 24 h, MTT, ****P<0.0001 vs t-BHP group",significant protective effect
same,Protective effect on t-BHP-induced cortical neuronal injury,"[3]; 24 h, MTT, ****P<0.0001 vs t-BHP group",significant protective effect
same,Protective effect on t-BHP-induced cortical neuronal injury compared with TMP and Edaravone,[3]; [13],much stronger than that of the parent compound TMP and Edaravone
same,Elevation of ROS and RNS in t-BHP-induced PC12 cells,[4],Reduced the Elevation of ROS and RNS
same,Protective effect on IAA-induced cortical neuronal injury,"[5]; IAA 40 μM, 24 h, MTT, ****P<0.0001 vs IAA group",significant protective effect
same,Protective effect on IAA-induced cortical neuronal injury compared with TMP and Edaravone,[5]; [13],much stronger than that of the parent compound TMP and Edaravone
same,MEF2 transcriptional activity in PC12 cells,[6],significantly activates ME12 transcriptional activity
same,t-BHP-induced mitochondrial membrane potential disorder in PC12 cells,[7],improved t-BHP-induced mitochondrial membrane potential disorder
same,"Differentiation of PC12 cells into neurons, synapse formation and growth","[8]; serum-free F-12K, different concentrations, concentration-dependent","significantly promote differentiation of PC12 cells into neurons, synapse formation and growth"
same,Protective effect on glutamate-induced primary cerebellar granule injury,[9],significant protective effect
same,Protective effect on IAA-induced PC12 cell injury,"[10]; IAA 50 μM 2 h, then compound 24 h, MTT, ****P<0.0001 vs IAA group",significant protective effect
same,Protective effect on IAA-induced PC12 cell injury compared with TMP and Edaravone,[10]; [13],much stronger than that of the parent compound TMP and Edaravone
same,Protective effect on MPP+-induced primary cerebellar granule injury,[11],significant protective effect
same,t-BHP-induced PC12 cell apoptosis,[12],reduced t-BHP-induced PC12 cell apoptosis
"COc1cc2c(cc1OC)C(=O)C(CC1CCN(Cc3ccccc3)CC1)C2 (centres unmarked) [donepezil, reference compound]",Improvement of scopolamine-induced memory impairment,[1]; 3 mg/kg intragastric for two weeks,significantly improved the memory impairment induced by scopolamine
"NGF: positive control NGF, 50 ng/mL, in the PC12 differentiation test","Differentiation of PC12 cells into neurons, synapse formation and growth","[8]; serum-free F-12K + 50 ng/mL NGF, positive control","significantly promote differentiation of PC12 cells into neurons, synapse formation and growth"

# From US20180346430A1, “TRIFLUOROACETYL HYDRAZIDE COMPOUNDS AND METHODS OF PREPARATION AND USES THEREOF” (GUANGHOU MAGPIE PHARMACEUTICALS CO., LTD., priority 2014, published 2018)
